Like-named read-outs stand apart in the source and are kept apart here.
How the values were obtained:
wheat [1] = assay: Test A preemergence; format: in vivo, Triticum aestivum
In short: (§1)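 Scoring: eye-based comparison with untreated controls, 0 for no effect through 100 for complete control, at about day 10. Treatments: directed soil spray preemergence; foliar spray postemergence on 2–10 cm plants at the one- to two-leaf stage. Medium: loam soil with sand.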

Italian ryegrass = assay: Test C preemergence; format: in vivo, Lolium multiflorum
Source text: (§2) Seeds of plant species selected from blackgrass (Alopecurus myosuroides), Italian ryegrass (Lolium multiflorum), wheat, winter (winter wheat, Triticum aestivum), galium (catchweed bedstraw, Galium aparine), corn (Zea mays), large (Lg) crabgrass (Digitaria sanguinalis), giant foxtail (Setaria faberii), johnsongrass (Sorghum halepense), lambsquarters (Chenopodium album), morningglory (Ipomoea coccinea), yellow nutsedge (Cyperus esculentus), pigweed (Amaranthus retroflexus), ragweed (common ragweed, Ambrosia elatior), soybean (Glycine max), barnyardgrass (Echinochloa crus-galli), oilseed rape (Brassica napus), waterhemp (common waterhemp, Amaranthus rudis), kochia (Kochia scoparia), wild oat (Avena fatua), surinam grass (Brachiaria decumbens), foxtail, green (green foxtail, Setaria viridis), goosegrass (Eleusine indica), bromegrass, downy (downy bromegrass, Bromus tectorum), nightshade (eastern black nightshade, Solanum ptycanthum), cocklebur (common cocklebur, Xanthium strumarium), cupgrass, woolly (woolly cupgrass, Eriochloa villosa), bermudagrass (Cynodon dactylon), sunflower, (common oilseed sunflower, Helianthus annuus), Russian thistle (Salsola kali), and velvetleaf (Abutilon theophrasti) were planted into a blend of loam soil and sand and treated preemergence with test chemicals formulated in a non-phytotoxic solvent mixture which included a surfactant.
(§3) At the same time, plants selected from these crop and weed species and also barley, winter (winter barley, Hordeum vulgare), windgrass (Apera spica-venti), chickweed (common chickweed, Stellaria media), deadnettle (henbit deadnettle, Lamium amplexicaule), and canarygrass (littleseed canarygrass, Phalaris minor) were planted in pots containing Redi-Earth® planting medium (Scotts Company, 14111 Scottslawn Road, Marysville, Ohio 43041) comprising spaghnum peat moss, vermiculite, wetting agent and starter nutrients and treated with postemergence applications of test chemicals formulated in the same manner. Plants ranged in height from 2 to 18 cm (1- to 4-leaf stage) for postemergence treatments. Treated plants and controls were maintained in a greenhouse for 13 to 15 days, after which time all species were compared to controls and visually evaluated. Plant response ratings, summarized in Table C, are based on a scale of 0 to 100 where 0 is no effect and 100 is complete control. A dash (-) response means no test result.

pigweed [2] = assay: Test A preemergence; format: in vivo, Amaranthus retroflexus; conditions: for pest or weed control at 500 g/ha / Pigweed plant response rating: 500 g ai/ha; for pest or weed control at 500 g/ha: read-out: Pigweed plant response rating
In short: as §1

morningglory = assay: Test A preemergence; format: in vivo, Ipomoea spp.
In short: as §1

pigweed [3] = assay: Test A postemergence; format: in vivo, Amaranthus retroflexus
In short: as §1

galium = assay: Test C preemergence; format: in vivo, Galium aparine
Source text: as §2, §3

wheat [4] = assay: Test A postemergence; format: in vivo, Triticum aestivum
In short: as §1

sedge, umbrella = assay: Test B flooded paddy test; format: in vivo, Cyperus difformis; conditions: Flood, 250 g ai/ha, 0 to 100 scale where 0 is no effect and 100 is complete control; for pest or weed control at 250 g/ha: Cyperus difformis, read-out: Plant response rating, Sedge, Umbrella
In short: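 Visual ratings on a 0 to 100 scale, where 100 means complete control, compared treated plants with controls after 13 to 15 days in a greenhouse. Treatment went into paddy water 3 cm deep over the soil, applied to plants at the 2-leaf stage.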

[5] = 125 g ai/ha, 0 to 100 scale where 0 is no effect and 100 is complete control
[6] = Lolium multiflorum, pre-emergence, 125 g ai/ha, preemergence, scale 0 (no effect) to 100 (complete control), read-out: Ryegrass, Italian plant response rating
[7] = Galium, pre-emergence, 125 g ai/ha, preemergence, scale 0 (no effect) to 100 (complete control), read-out: Galium plant response rating
[8] = 16 g ai/ha, preemergence, scale 0 to 100 (0 no effect, 100 complete control)
[9] = 62 g ai/ha, preemergence, scale 0 (no effect) to 100 (complete control)
[10] = 125 g ai/ha, preemergence, scale 0 (no effect) to 100 (complete control)
[11] = Preemergence, 31 g ai/ha, scale 0 to 100, 0 no effect, 100 complete control
[12] = 500 g ai/ha, 0 to 100 scale where 0 is no effect and 100 is complete control
[13] = Preemergence, 62 g ai/ha, scale 0 to 100, 0 no effect, 100 complete control
[14] = 31 g ai/ha, 0 to 100 scale, 0 no effect, 100 complete control
[15] = 125 g ai/ha, 0 to 100 scale, 0 no effect, 100 complete control

## FC(F)(F)c1cnn(-c2ccccc2Oc2ncc(Br)cn2)c1 [Compound 18, 5-bromo-2-[2-[4-(trifluoromethyl)-1H-pyrazol-1-yl]phenoxy]pyrimidine]
Wheat [1]; [5]
  Plant response rating, Wheat: 0
Wheat [1]; Triticum aestivum, pre-emergence, 240 h, 500 g ai/ha, 0 to 100 scale, 0 no effect, 100 complete control, approx. 10 days, read-out: Wheat plant response rating
  plant injury at 500 g/ha: 70%
Italian ryegrass; Lolium multiflorum, pre-emergence, 62 g ai/ha, preemergence, scale 0 (no effect) to 100 (complete control), read-out: Ryegrass, Italian plant response rating
  pest or weed control at 62 g/ha: 5%
Italian ryegrass; [6]
  pest or weed control at 125 g/ha: 45%
Italian ryegrass; Lolium multiflorum, pre-emergence, 250 g ai/ha, preemergence, scale 0 (no effect) to 100 (complete control), read-out: Ryegrass, Italian plant response rating
  pest or weed control at 250 g/ha: 85%
Italian ryegrass; Lolium multiflorum, pre-emergence, Preemergence, 31 g ai/ha, scale 0 to 100, 0 no effect, 100 complete control, read-out: Plant response rating, Ryegrass, Italian
  pest or weed control at 31 g/ha: 0%
Pigweed [2]; Amaranthus retroflexus, pre-emergence, 125 g ai/ha, 0 to 100 scale where 0 is no effect and 100 is complete control, read-out: Plant response rating, Pigweed
  pest or weed control at 125 g/ha: 100%
Pigweed [2]; Amaranthus retroflexus, pre-emergence, 240 h, 0 to 100 scale, 0 no effect, 100 complete control, approx. 10 days
  pest or weed control at 500 g/ha: 100%
morningglory; [5]
  Plant response rating, Morningglory: 0
morningglory; Ipomoea, pre-emergence, 240 h, 500 g ai/ha, 0 to 100 scale, 0 no effect, 100 complete control, approx. 10 days, read-out: Morningglory plant response rating
  pest or weed control at 500 g/ha: 40%
Pigweed [3]; Amaranthus retroflexus, post-emergence, 125 g ai/ha, 0 to 100 scale where 0 is no effect and 100 is complete control, read-out: Plant response rating, Pigweed
  pest or weed control at 125 g/ha: 100%
Pigweed [3]; Amaranthus retroflexus, post-emergence, 240 h, 500 g ai/ha, 0 to 100 scale, 0 no effect, 100 complete control, read-out: Plant response rating Pigweed
  pest or weed control at 500 g/ha: 100%
galium; Galium, pre-emergence, 62 g ai/ha, preemergence, scale 0 (no effect) to 100 (complete control), read-out: Galium plant response rating
  pest or weed control at 62 g/ha: 95%
galium; [7]
  pest or weed control at 125 g/ha: 100%
galium; Galium, pre-emergence, 250 g ai/ha, preemergence, scale 0 (no effect) to 100 (complete control), read-out: Galium plant response rating
  pest or weed control at 250 g/ha: 100%
galium; Galium, pre-emergence, Preemergence, 31 g ai/ha, scale 0 to 100, 0 no effect, 100 complete control, read-out: Plant response rating, Galium
  pest or weed control at 31 g/ha: 90%
Wheat [4]; Triticum aestivum, post-emergence, 240 h, 125 g ai/ha, 0 to 100 scale where 0 is no effect and 100 is complete control, read-out: Plant response rating, Wheat
  plant injury at 125 g/ha: 50%
Wheat [4]; Triticum aestivum, post-emergence, 240 h, 500 g ai/ha, 0 to 100 scale, 0 no effect, 100 complete control, read-out: Plant response rating Wheat
  plant injury at 500 g/ha: 50%
sedge, umbrella
  pest or weed control at 250 g/ha: 90%

## Fc1cnc(Oc2cccc(C(F)F)c2-n2cc(Br)cn2)nc1 [Compound 112]
Wheat [1]; [5]
  Plant response rating, Wheat: 0
Italian ryegrass; [8]
  Ryegrass, Italian plant response rating: 0
Italian ryegrass; [9]
  Ryegrass, Italian plant response rating: 5
Italian ryegrass; [10]
  Ryegrass, Italian plant response rating: 30
Italian ryegrass; [11]
  Plant response rating, Ryegrass, Italian: 0
Pigweed [2]; [5]
  Plant response rating, Pigweed: 100
Pigweed [2]; 0 to 100 scale, 0 no effect, 100 complete control, approx. 10 days
  Pigweed plant response rating: 100
morningglory; [5]
  Plant response rating, Morningglory: 80
morningglory; 500 g ai/ha, 0 to 100 scale, 0 no effect, 100 complete control, approx. 10 days
  Morningglory plant response rating: 90
Pigweed [3]; [12]
  Plant response rating, Pigweed: 100
galium; [8]
  Galium plant response rating: 55
galium; [9]
  Galium plant response rating: 100
galium; [10]
  Galium plant response rating: 95
galium; [11]
  Plant response rating, Galium: 98
Wheat [4]; [12]
  Plant response rating, Wheat: 70
sedge, umbrella
  Plant response rating, Sedge, Umbrella: 85

## Fc1cccc(Oc2ncc(Cl)cn2)c1-n1cc(I)cn1 [Compound 179]
Wheat [1]; 125 g ai/ha
  Wheat plant response rating (0 to 100 scale): 0
Wheat [1]; [12]
  Wheat plant response rating: 30
Italian ryegrass; [8]
  Ryegrass, Italian plant response rating: 0
Italian ryegrass; [9]
  Ryegrass, Italian plant response rating: 30
Italian ryegrass; [10]
  Ryegrass, Italian plant response rating: 70
Pigweed [2]; 125 g ai/ha
  Pigweed plant response rating (0 to 100 scale): 100
Pigweed [2]; 0 to 100 scale where 0 is no effect and 100 is complete control
  Pigweed plant response rating: 100
morningglory; 125 g ai/ha
  Morningglory plant response rating (0 to 100 scale): 10
morningglory; [12]
  Morningglory plant response rating: 80
Pigweed [3]; [5]
  Pigweed plant response rating: 100
Pigweed [3]; [12]
  Plant response rating, Pigweed: 100
galium; [8]
  Galium plant response rating: 90
galium; [9]
  Galium plant response rating: 98
galium; [10]
  Galium plant response rating: 100
galium; [11]
  Plant response rating, Galium: 95
Wheat [4]; [5]
  Wheat plant response rating: 30
Wheat [4]; [12]
  Plant response rating, Wheat: 60
sedge, umbrella
  Plant response rating, Sedge, Umbrella: 85

## N#Cc1cccc(Oc2ncc(Cl)cn2)c1-n1cnc(C(F)(F)F)c1 [Compound 252, 3-[(5-chloro-2-pyrimidinyl)oxy]-2-[4-(trifluoromethyl)-1H-imidazol-1-yl]benzonitrile]
Italian ryegrass; Lolium multiflorum, pre-emergence, 16 g ai/ha, preemergence, scale 0 to 100 (0 no effect, 100 complete control), read-out: Ryegrass, Italian plant response rating
  pest or weed control at 16 g/ha: 0%
Italian ryegrass; [6]
  pest or weed control at 125 g/ha: 90%
Italian ryegrass; Lolium multiflorum, pre-emergence, Preemergence, 62 g ai/ha, scale 0 to 100, 0 no effect, 100 complete control, read-out: Plant response rating, Ryegrass, Italian
  pest or weed control at 62 g/ha: 60%
Pigweed [2]; 125 g ai/ha
  Pigweed plant response rating (0 to 100 scale): 100
Pigweed [2]; Amaranthus retroflexus, pre-emergence, 240 h, 31 g ai/ha, 0 to 100 scale where 0 is no effect and 100 is complete control, visual, approximately 10 days, read-out: Plant response rating, Pigweed
  pest or weed control at 31 g/ha: 100%
Pigweed [2]; Amaranthus retroflexus, pre-emergence, 240 h, 0 to 100 scale where 0 is no effect and 100 is complete control
  pest or weed control at 500 g/ha: 100%
Pigweed [3]; Amaranthus retroflexus, post-emergence, 31 g ai/ha, 0 to 100 scale, 0 no effect, 100 complete control, read-out: Plant response rating, Pigweed
  pest or weed control at 31 g/ha: 80%
Pigweed [3]; Amaranthus retroflexus, post-emergence, 125 g ai/ha, 0 to 100 scale, 0 no effect, 100 complete control, read-out: Plant response rating, Pigweed
  pest or weed control at 125 g/ha: 100%
Pigweed [3]; Amaranthus retroflexus, post-emergence, 500 g ai/ha, 0 to 100 scale where 0 is no effect and 100 is complete control, read-out: Plant response rating, Pigweed
  pest or weed control at 500 g/ha: 100%
galium; Galium, pre-emergence, 16 g ai/ha, preemergence, scale 0 to 100 (0 no effect, 100 complete control), read-out: Galium plant response rating
  pest or weed control at 16 g/ha: 80%
galium; [7]
  pest or weed control at 125 g/ha: 98%
galium; Galium, pre-emergence, Preemergence, 62 g ai/ha, scale 0 to 100, 0 no effect, 100 complete control, read-out: Plant response rating, Galium
  pest or weed control at 62 g/ha: 90%
Wheat [4]; Triticum aestivum, post-emergence, 240 h, 31 g ai/ha, 0 to 100 scale, 0 no effect, 100 complete control, read-out: Plant response rating, Wheat
  plant injury at 31 g/ha: 20%
Wheat [4]; Triticum aestivum, post-emergence, 240 h, 125 g ai/ha, 0 to 100 scale, 0 no effect, 100 complete control, read-out: Plant response rating, Wheat
  plant injury at 125 g/ha: 30%
Wheat [4]; Triticum aestivum, post-emergence, 240 h, 500 g ai/ha, 0 to 100 scale where 0 is no effect and 100 is complete control, read-out: Plant response rating, Wheat
  plant injury at 500 g/ha: 90%
sedge, umbrella
  pest or weed control at 250 g/ha: 80%

## Fc1cccc(Oc2ncc(Cl)cn2)c1-n1cc(OCC(F)(F)F)cn1 [Compound 270]
Italian ryegrass; [8]
  Ryegrass, Italian plant response rating: 0
Italian ryegrass; [10]
  Ryegrass, Italian plant response rating: 50
Italian ryegrass; [13]
  Plant response rating, Ryegrass, Italian: 10
Pigweed [2]; 31 g ai/ha, 0 to 100 scale where 0 is no effect and 100 is complete control, visual, approximately 10 days
  Plant response rating, Pigweed: 100
Pigweed [2]; 125 g ai/ha
  Pigweed plant response rating (0 to 100 scale): 100
Pigweed [3]; [14]
  Plant response rating, Pigweed: 60
Pigweed [3]; [15]
  Plant response rating, Pigweed: 100
galium; [8]
  Galium plant response rating: 70
galium; [10]
  Galium plant response rating: 100
galium; [13]
  Plant response rating, Galium: 95
Wheat [4]; [14]
  Plant response rating, Wheat: 0
Wheat [4]; [15]
  Plant response rating, Wheat: 30
sedge, umbrella
  Plant response rating, Sedge, Umbrella: 90

From US9695155B2, “Herbicidal substituted pyrimidinyloxy benzene compounds” (E. I. DU PONT DE NEMOURS AND COMPANY, priority 2013, dated 2017)
